We go through 1 compound from patent publication US20060204562A1, “Microprojection arrays with improved biocompatibility” (priority 2005, published 2006).

What all share (type): in vivo, hairless guinea pig
Data set [1] in a line: transdermal drug absorption from gel formulation with microprojection systems, extrapolated from urinary excretion. How it is done: (§1) Pretreatment and integrated systems described In U.S. application Ser. Nos. 10/971,430 and 10/970,901 were employed for the following analysis. The microprojection designs with retention features (i.e., 30a-30c) were used with the integrated system while the microprojection designs without retention features (i.e., 30d-30g) were used with the pretreatment system.
(§2) Following application of the systems, the gel formulation was left in contact with the skin for up to 24 h.

Data set [2] is described as follows: urinary excretion of intact RWJ-445167 following IV injection (LC-MS). The conditions noted are these: following IV injection of 0.5 to 3 mg RWJ-445167.
Data set [3] is described as follows: skin site irritation and bleeding after 24 h system wearing (erythema+edema score, photographs). Here is the method: as §1, §2
Referring now to FIG. 4, there is shown a series of photographs of the skin site following 24 h system wearing time.
An additional experiment using the pretreatment system was performed to compare microprojections lengths of 120 and 145 μm.
Referring now to FIG. 6, there is shown a graph illustrating the combined erythema+edema score obtained with the various microprojection designs. […] The results thus confirm that lower irritation is observed with shorter microprojections. Further, the skin site was not distinguishable from control sites (24 h wearing with the same formulation, no microprojection treatment).

As to `Cc1cccc(S(=O)(=O)Nc2ccc(C)n(CC(=O)NCCON=C(N)N)c2=O)c1` [RWJ-445167], in data set [1] (120 μm microprojection array pretreatment vs no microprojection treatment), the enhancement factor entry is on record as “at least 10000 fold”. For the same compound, the duration of delivery result in data set [1] (120 μm microprojections (FIG. 8)) is reported as “sustained delivery for 24 h”. In data set [1] (following pretreatment with a 120 μm microprojection array, 24 h wearing, 20 wt % gel formulation), the drug absorbed entry was “about 2.5 mg”. Also, the drug absorption in data set [1] (formulation applied to the skin for 24 h in the absence of treatment with a microprojection array, detection limit) was below 0.2 μg absorbed per 24 h. The “dose found excreted intact in urine” value in data set [2] is 7.5 % of the dose. The “combined erythema+edema score (irritation)” value in data set [3] (120 μm microprojections (FIG. 6), 24 h wearing) is “absence of irritation”. The “bleeding / erythema at skin site” value in data set [3] (pretreatment system, 120 μm microprojection length (FIG. 5)) is recorded as “no bleeding or erythema”. Moreover, the “bleeding at skin site” value in data set [3] (pretreatment system, 145 μm microprojection length (FIG. 5)) was “some pinpoint bleeding”.
